The values below are quoted from earlier work in publication PMC9516332 (Frontiers in Oncology, 2022).

Data set [1] addresses panel of 255 wild-type kinases (Homo sapiens, UniProt Q16644). The conditions noted are these: MAPKAPK3; 1 µmol/L single concentration; ref DOI: 10.1371/journal.pone.0092146; cited from earlier work.
Data set [2] deals with T1, panel of 255 wild-type kinases (Homo sapiens, UniProt Q02156).
T1 sequence (Q02156 1-737): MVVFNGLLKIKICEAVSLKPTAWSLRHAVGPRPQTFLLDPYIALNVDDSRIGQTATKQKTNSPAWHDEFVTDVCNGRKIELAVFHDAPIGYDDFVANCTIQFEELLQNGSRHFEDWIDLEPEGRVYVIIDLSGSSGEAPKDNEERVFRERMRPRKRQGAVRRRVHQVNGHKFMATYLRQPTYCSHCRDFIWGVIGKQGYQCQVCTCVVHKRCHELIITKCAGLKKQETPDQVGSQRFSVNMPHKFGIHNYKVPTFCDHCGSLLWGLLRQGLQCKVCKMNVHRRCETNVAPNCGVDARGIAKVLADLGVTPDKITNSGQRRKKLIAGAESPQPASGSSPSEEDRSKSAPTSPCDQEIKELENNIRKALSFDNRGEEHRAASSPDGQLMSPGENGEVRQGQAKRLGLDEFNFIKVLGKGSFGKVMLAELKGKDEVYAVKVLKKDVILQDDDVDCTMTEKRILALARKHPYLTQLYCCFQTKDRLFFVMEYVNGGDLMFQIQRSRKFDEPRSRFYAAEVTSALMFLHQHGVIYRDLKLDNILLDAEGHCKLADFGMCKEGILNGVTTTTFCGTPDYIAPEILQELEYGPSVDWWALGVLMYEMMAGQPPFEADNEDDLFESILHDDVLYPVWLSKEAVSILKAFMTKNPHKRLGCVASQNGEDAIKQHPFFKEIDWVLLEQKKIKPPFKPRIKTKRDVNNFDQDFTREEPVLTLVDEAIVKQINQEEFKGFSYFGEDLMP
The conditions noted are these: kinase PKCε; 1 µmol/L single concentration; ref DOI: 10.1371/journal.pone.0092146; cited from earlier work.

Data set [3] deals with panel of 255 wild-type kinases (Homo sapiens, UniProt Q15759). The note with it: p38β; 1 µmol/L single concentration; ref DOI: 10.1371/journal.pone.0092146; cited from earlier work.
Data set [4] concerns the target panel of 255 wild-type kinases (Homo sapiens, UniProt P11362). The note with it: kinase FGFR1; 1 µmol/L single concentration; ref DOI: 10.1371/journal.pone.0092146; cited from earlier work.
Data set [5] concerns the target panel of 255 wild-type kinases (Homo sapiens, UniProt Q9H2G2). The conditions noted are these: kinase SLK; 1 µmol/L single concentration; ref DOI: 10.1371/journal.pone.0092146; cited from earlier work.
Data set [6] addresses panel of 255 wild-type kinases (Homo sapiens, UniProt Q9UKE5). The note with it: kinase TNIK; 1 µmol/L single concentration; ref DOI: 10.1371/journal.pone.0092146; cited from earlier work.
Data set [7] deals with panel of 255 wild-type kinases (Homo sapiens, UniProt Q9NQU5). The note with it: PAK6; 1 µmol/L single concentration; ref DOI: 10.1371/journal.pone.0092146; cited from earlier work.
Data set [8] concerns the target T2, panel of 255 wild-type kinases (Homo sapiens, UniProt Q96PY6).
T2 sequence (Q96PY6 1-1258): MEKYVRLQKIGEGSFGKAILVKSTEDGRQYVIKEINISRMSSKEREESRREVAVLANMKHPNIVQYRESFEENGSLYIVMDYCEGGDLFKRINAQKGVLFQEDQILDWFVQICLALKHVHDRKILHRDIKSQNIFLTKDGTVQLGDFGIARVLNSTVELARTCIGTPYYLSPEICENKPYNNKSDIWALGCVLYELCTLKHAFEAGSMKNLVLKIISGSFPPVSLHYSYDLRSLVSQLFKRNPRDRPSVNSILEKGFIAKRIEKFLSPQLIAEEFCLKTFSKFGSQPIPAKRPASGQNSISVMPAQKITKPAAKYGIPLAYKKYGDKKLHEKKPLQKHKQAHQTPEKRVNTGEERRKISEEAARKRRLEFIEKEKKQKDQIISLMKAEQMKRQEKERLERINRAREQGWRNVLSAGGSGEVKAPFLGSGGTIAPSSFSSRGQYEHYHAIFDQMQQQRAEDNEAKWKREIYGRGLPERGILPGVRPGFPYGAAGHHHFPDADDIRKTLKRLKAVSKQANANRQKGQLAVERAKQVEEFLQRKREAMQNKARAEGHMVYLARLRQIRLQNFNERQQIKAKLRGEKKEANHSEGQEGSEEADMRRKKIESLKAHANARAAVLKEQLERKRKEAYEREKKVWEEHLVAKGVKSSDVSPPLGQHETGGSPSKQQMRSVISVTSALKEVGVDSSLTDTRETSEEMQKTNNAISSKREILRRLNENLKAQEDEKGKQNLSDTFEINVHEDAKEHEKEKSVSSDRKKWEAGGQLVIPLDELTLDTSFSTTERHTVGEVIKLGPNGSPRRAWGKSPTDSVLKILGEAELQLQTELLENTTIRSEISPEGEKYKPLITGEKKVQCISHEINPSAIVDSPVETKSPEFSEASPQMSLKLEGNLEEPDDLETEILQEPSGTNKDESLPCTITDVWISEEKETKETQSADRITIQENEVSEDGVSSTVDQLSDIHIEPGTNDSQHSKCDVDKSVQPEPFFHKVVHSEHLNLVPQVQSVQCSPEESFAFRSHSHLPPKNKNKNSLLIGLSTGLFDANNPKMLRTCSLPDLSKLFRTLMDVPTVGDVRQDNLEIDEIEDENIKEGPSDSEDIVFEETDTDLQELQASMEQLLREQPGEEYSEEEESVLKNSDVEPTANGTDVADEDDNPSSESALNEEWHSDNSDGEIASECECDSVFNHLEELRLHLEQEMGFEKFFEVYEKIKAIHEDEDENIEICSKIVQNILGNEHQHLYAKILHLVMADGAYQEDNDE
The conditions noted are these: NEK1; 1 µmol/L single concentration; ref DOI: 10.1371/journal.pone.0092146; cited from earlier work.

Turning to `CC(=O)Nc1cccc(-n2c(=O)n(C3CC3)c(=O)c3c(Nc4ccc(I)cc4F)n(C)c(=O)c(C)c32)c1` [trametinib], the “%-inhibition, MAPKAPK3” value in data set [1] is -9%. In data set [2], the “%-inhibition at 1 µmol/L, PKCε” value is on record as 6%. In data set [3], the “%-inhibition, p38β” value is listed as 2.31%. Moreover, the “%-inhibition at 1 µmol/L, FGFR1” value in data set [4] is reported as -1.45%. Besides, in data set [5], the “%-inhibition at 1 µmol/L, SLK” value was -2.6%. Moreover, the “%-inhibition at 1 µmol/L, TNIK” value in data set [6] was 3%. For the same molecule, in data set [7], the “%-inhibition, PAK6” value is 8%. The “%-inhibition, NEK1” value in data set [8] is reported as -5%.
`CCCS(=O)(=O)Nc1ccc(F)c(C(=O)c2c[nH]c3ncc(-c4ccc(Cl)cc4)cc23)c1F` [vemurafenib]: in data set [1], the “%-inhibition, MAPKAPK3” value is recorded as 12%. For the same molecule, in data set [2], the “%-inhibition at 1 µmol/L, PKCε” value is on record as -8%. Further, in data set [3], the “%-inhibition, p38β” value was 24%. Also, the “%-inhibition at 1 µmol/L, FGFR1” value in data set [4] is 21%. For the same molecule, the “%-inhibition at 1 µmol/L, SLK” value in data set [5] is 43%. Besides, in data set [6], the “%-inhibition at 1 µmol/L, TNIK” value is 33%. For the same molecule, the “%-inhibition, PAK6” value in data set [7] was -7%. Further, the “%-inhibition, NEK1” value in data set [8] is reported as -2.74%.
